According to US20260076955A1, “JOINT CAVITY DRUG ADMINISTRATION METHOD, AND USE THEREOF” (TENNOR THERAPEUTICS (SUZHOU) LIMITED, priority 2023, published 2026):
In brackets after ≈: the same amount, converted by molar mass. Where two headings read alike, the source gives them in different places. Marks after values point to notes of the source that are not given here. Each block holds one compound with its values, some of them ahead of it.

Columns and labels:
[1] = system: methicillin-sensitive Staphylococcus aureus (MSSA, ATCC6538 strain); assay: Mouse metal implant joint infection model, colony counts from pin and femur; format: in vivo; conditions: for Femur Mean Log10 CFU / Log10 CFU Reduction vs. day 14 control, Femur / Log10 CFU Reduction vs. day 14 control, Pin / Pin Mean Log10 CFU: day 14
Source text: In this example, female mice aged 8-10 weeks were used and randomly grouped. Before the start of drug administration treatment, each mouse underwent a surgery involving the placement of a metal implant into the femoral-tibial joint and an intraarticular inoculation of methicillin-sensitive Staphylococcus aureus (MSSA, ATCC6538 strain) at the surgical site. Therapeutic agents were formulated as follows: • (1) compound of formula (I): when used as a therapeutic agent for intraarticular injection (IA), the compound was dissolved in 5% dextrose in water (D5W) and formulated to the required concentrations; when used as a therapeutic agent for intraperitoneal injection (IP), the compound was dissolved in a solvent system of ethanol/NaHCO3/6% Cremophor and formulated to the required concentrations; (2) vancomycin: the drug was dissolved in sterile water for injection (WFI) and formulated to the required concentration to obtain a therapeutic agent for intraarticular injection. [table] Samples were obtained from the surgical and inoculation sites of the mice, and colony counts are performed on the agar plates. The number of colonies converted to CFU/tissue by multiplying the number of colonies by the volume of the homogenate spotted and the dilution at which the colonies were counted (5-50 colonies/spot). The resulting value was expressed as log10 CFU/tissue and used to calculate the mean and standard deviations (the results are shown in Table 1).

MRSA ATCC43300 strain = assay: MIC (minimum inhibitory concentration) determination; format: cell-based; conditions: Staphylococcus aureus, read-out: MIC (minimum inhibitory concentration)
[2] = system: methicillin-resistant Staphylococcus aureus (MRSA, ATCC43300 strain); assay: Rat PJI model: CFU count, scanning electron microscopy of prosthesis, H&E pathology of synovium; format: in vivo; conditions: for Tissue bacterial load in bone tissue / Tissue bacterial load in prosthesis / Tissue bacterial load in soft tissue: QD × 14 days, sample D 21
Source text: In this example, rats aged about 17 weeks were used. Before the start of drug administration treatment, each rat underwent an aseptic surgery to insert an artificial prosthesis into the knee joint, followed by an intraarticular inoculation of methicillin-resistant Staphylococcus aureus (MRSA, ATCC43300 strain) at the surgical site.

Staphylococcus aureus [3] = assay: MIC90; format: cell-based; conditions: against Staphylococcus aureus
[4] = system: Staphylococcus epidermidis; assay: Biofilm bactericidal activity MBBC90; format: cell-based; conditions: against Staphylococcus epidermidis
[5] = Pharmacokinetics after single intraarticular injection in beagle dogs (plasma and synovial fluid); format: in vivo; conditions: both sexes, dog, single intraarticular injection 3 mg/kg; for AUC(0-t) / Cmax / Tmax / half-life: mean
Procedure: In this example, an experiment with an animal model of male and female beagle dogs was used to evaluate the pharmacokinetic behavior after a single intraarticular injection of the compound of formula (I) in the knee. A total of 6 beagle dogs (3 males and 3 females) were used for this experiment. The experimental animals received a single intraarticular injection of 3 mg/kg of the compound of formula (I) in the left joint, and a single intraarticular injection of 0.1 mL/kg of the vehicle (injection solution of 5% dextrose in water) in the right joint. From the experimental animals, plasma samples were collected before administration (0 hour) and at 0.25 hour (15 minutes), 3 hours, 9 hours, 12 hours, 24 hours, 36 hours, 48 hours, and 72 hours after administration, and left knee synovial fluid samples were collected at 12 hours, 36 hours, and 60 hours after administration. The concentrations of the compound of formula (I) in the plasma and synovial fluid samples were determined using high-performance liquid chromatography-tandem mass spectrometry (LC-MS/MS).

[6] = system: Staphylococcus epidermidis; assay: MIC90; format: cell-based; conditions: against Staphylococcus epidermidis
Staphylococcus aureus [7] = assay: Biofilm bactericidal activity MBBC90; format: cell-based; conditions: against Staphylococcus aureus
[8] = 45 mg/kg, 25 μL IA, QD × 7 days
[9] = 5 mg/kg, 0.2 mL IP, BID × 7 days
[10] = 15 mg/kg, 0.2 mL IP, BID × 7 days
[11] = 15 mg/kg, 25 μL IA, QD × 7 days
[12] = 45 mg/kg, 0.2 mL IP, BID × 7 days
[13] = intraarticular administration, all IA dose groups (5-45 mg/kg)
[14] = group T2.5, 2.5 mg/kg intraarticular
[15] = group T5, 5 mg/kg intraarticular
[16] = group T10, 10 mg/kg intraarticular

SMILES: CN[C@H](CC(C)C)C(=O)N[C@H]1C(=O)N[C@@H](CC(N)=O)C(=O)N[C@H]2C(=O)N[C@H]3C(=O)N[C@H](C(=O)N[C@H](C(=O)O)c4cc(O)cc(O)c4-c4cc3ccc4O)[C@H](O)c3ccc(c(Cl)c3)Oc3cc2cc(c3O[C@@H]2O[C@H](CO)[C@@H](O)[C@H](O)[C@H]2O[C@H]2C[C@](C)(N)[C@H](O)[C@H](C)O2)Oc2ccc(cc2Cl)[C@H]1O [Vancomycin, reference compound]
Femur Mean Log10 CFU [1, 8]: 6.08 Log10 CFU | Log10 CFU Reduction vs. day 14 control, Femur [1, 8]: −0.80 Log10 CFU | Log10 CFU Reduction vs. day 14 control, Pin [1, 8]: −1.28 Log10 CFU | Pin Mean Log10 CFU [1, 8]: 3.49 Log10 CFU | MIC (MRSA ATCC43300 strain): 0.5 µg/mL (≈ 0.345 µM) | Tissue bacterial load in bone tissue ([2]; group Van, 44 mg/kg): 11733 ± 8583 CFU | Tissue bacterial load in prosthesis ([2]; group Van, 44 mg/kg): 1783 ± 1136 CFU | Tissue bacterial load in soft tissue ([2]; group Van, 44 mg/kg): 1050 ± 1174 CFU | pathological H&E staining of the synovial soft tissue (FIG. 2B) ([2]; vancomycin group, 44 mg/kg): a significant reduction in inflammatory cell infiltration in the synovium | scanning electron microscopy observation of prosthesis (FIG. 2A) ([2]; vancomycin treatment group, 44 mg/kg): a relatively large number of bacteria still remained

MIC90 (Staphylococcus aureus [3]): 0.015 µg/mL | AUC(0-t) ([5]; plasma): 20.8 ± 7.15 µg·h/mL | Cmax ([5]; plasma): 736 ± 247 ng/mL | Tmax ([5]; plasma): 24 h | half-life ([5]; plasma): 12 h | AUC(0-t) ([5]; synovial fluid): 1000 ± 1050 µg·h/mL | Cmax ([5]; synovial fluid): 77400 ± 81900 ng/mL | Tmax ([5]; synovial fluid): 12 h | half-life ([5]; synovial fluid): 6.81 h | Kp ([5]; synovial fluid/plasma, read-out: AUC ratio = AUC0-last in synovial fluid/AUC0-last in plasma): 46.1 | MIC90 [6]: 0.008 µg/mL | MIC (MRSA ATCC43300 strain; MRSA ATCC43300 strain): 0.032 µg/mL
SMILES: CO[C@H]1/C=C/O[C@@]2(C)Oc3c(C)c(O)c4c(O)c(c(/C=N/N5CCC(N(C)C6([C@@H]7CCN(c8c(F)cn9c(=O)c(C(=O)O)cc(C%10CC%10)c9c8C)C7)CC6)CC5)c(O)c4c3C2=O)NC(=O)/C(C)=C\C=C\[C@H](C)[C@H](O)[C@@H](C)[C@@H](O)[C@@H](C)[C@H](OC(C)=O)[C@@H]1C [compound of formula (I)]
Femur Mean Log10 CFU [1, 9]: 6.51 Log10 CFU | Log10 CFU Reduction vs. day 14 control, Femur [1, 9]: −0.37 Log10 CFU | Log10 CFU Reduction vs. day 14 control, Pin [1, 9]: −0.51 Log10 CFU | Pin Mean Log10 CFU [1, 9]: 4.26 Log10 CFU | Femur Mean Log10 CFU ([1]; 5 mg/kg, 25 μL IA, QD × 7 days): 5.17 Log10 CFU | Log10 CFU Reduction vs. day 14 control, Femur ([1]; 5 mg/kg, 25 μL IA, QD × 7 days): −1.71 Log10 CFU | Log10 CFU Reduction vs. day 14 control, Pin ([1]; 5 mg/kg, 25 μL IA, QD × 7 days): −2.50 Log10 CFU | Pin Mean Log10 CFU ([1]; 5 mg/kg, 25 μL IA, QD × 7 days): 2.27 Log10 CFU | Femur Mean Log10 CFU [1, 10]: 5.33 Log10 CFU | Log10 CFU Reduction vs. day 14 control, Femur [1, 10]: −1.55 Log10 CFU | Log10 CFU Reduction vs. day 14 control, Pin [1, 10]: −2.25 Log10 CFU | Pin Mean Log10 CFU [1, 10]: 2.52 Log10 CFU | Femur Mean Log10 CFU [1, 11]: 3.76 Log10 CFU | Log10 CFU Reduction vs. day 14 control, Femur [1, 11]: −3.12 Log10 CFU | Log10 CFU Reduction vs. day 14 control, Pin [1, 11]: −2.54 Log10 CFU | Pin Mean Log10 CFU [1, 11]: 2.23 Log10 CFU | Femur Mean Log10 CFU [1, 12]: 3.42 Log10 CFU | Log10 CFU Reduction vs. day 14 control, Femur [1, 12]: −3.46 Log10 CFU | Log10 CFU Reduction vs. day 14 control, Pin [1, 12]: −2.72 Log10 CFU | Pin Mean Log10 CFU [1, 12]: 2.05 Log10 CFU | Femur Mean Log10 CFU [1, 8]: 3.46 Log10 CFU | Log10 CFU Reduction vs. day 14 control, Femur [1, 8]: −3.42 Log10 CFU | Log10 CFU Reduction vs. day 14 control, Pin [1, 8]: −2.72 Log10 CFU | Pin Mean Log10 CFU [1, 8]: 2.05 Log10 CFU | mean femur colony counts lower than those in the untreated control animals [1, 13]: 1.71-3.42 log10 CFU | mean pin colony counts lower than those in the untreated control animals [1, 13]: 2.5-2.72 logo CFU | biofilm bactericidal activity MBBC90 [4]: 250 ng/mL | Tissue bacterial load in bone tissue [2, 14]: 7083 ± 6280 CFU | Tissue bacterial load in prosthesis [2, 14]: 550 ± 207 CFU | Tissue bacterial load in soft tissue [2, 14]: 9717 ± 1387 CFU | Tissue bacterial load in bone tissue [2, 15]: 1383 ± 1068 CFU | Tissue bacterial load in prosthesis [2, 15]: 0 *** CFU | Tissue bacterial load in soft tissue [2, 15]: 5433 ± 3194 CFU | Tissue bacterial load in bone tissue [2, 16]: 2400 ± 1655 CFU | Tissue bacterial load in prosthesis [2, 16]: 0 *** CFU | Tissue bacterial load in soft tissue [2, 16]: 1517 ± 1011 CFU | pathological H&E staining of the synovial soft tissue (FIG. 2B) ([2]; high-dose group, 10 mg/kg): a significant reduction in inflammatory cell infiltration in the synovium | scanning electron microscopy observation of prosthesis (FIG. 2A) ([2]; high-dose group, 10 mg/kg): individual cocci embedded therein | scanning electron microscopy observation of prosthesis (FIG. 2A) ([2]; low-dose group, 2.5 mg/kg): the formation of a relatively large number of colonies could still be observed | scanning electron microscopy observation of prosthesis (FIG. 2A) ([2]; medium-dose group, 5 mg/kg): individual bacteria still present | biofilm bactericidal activity MBBC90 (Staphylococcus aureus [7]): 2000 ng/mL
